The source of these data is patent publication EP4759825A1, “PEPTIDE FRAGMENT AND USE THEREOF” (Toagosei Co., Ltd., priority 2023, dated 2026).

FAM = 5(6)-carboxyfluorescein

The test concerns NSC-34 cells. Nature of the test: Evaluation of cell membrane permeability (flow cytometer, mean fluorescence intensity of cells cultured with the construct). It counts as cell-based, mouse. As to conditions: mean fluorescence intensity (FL2 detector), 10 µM construct or FAM, 0.5% DMSO, 20 hours at 37°C, 5% CO2. On the procedure: As the eukaryotic cells, NSC-34 cells (mouse motor neuron-like hybrid cell line) were used and the cell membrane permeability of the prepared construct was evaluated.
The NSC-34 cell was cultured in 10% fetal bovine serum (FBS)-containing Dulbecco's modified Eagle's medium (DMEM (Cat No. 044-29765, manufactured by FUJIFILM Wako Pure Chemical Corporation)), which is a culture medium.
The NSC-34 cell that adhered to a culture plate was cleaned with PBS and then, a 0.25%-trypsin/EDTA solution was added thereto, and incubation was performed for three minutes at 37°C. […]
Regarding the obtained cells (cell pellet), the cell membrane permeability was analyzed using a flow cytometer. […]
Using the aforementioned flow cytometer, gating based on forward scatter (FSC) and side scatter (SSC) was performed to set a gate about a cell group to be analyzed, and the fluorescence intensity was measured about the cell group in this gate. Note that the number of cells of the cell group to be analyzed was set to about 10000, and the analysis was performed. The fluorescence intensity was measured using a fluorescence detector FL2 of the flow cytometer (optimum detection wavelength around 543 nm) capable of detecting the fluorescence wavelength of FAM. […]
On the technique in general: In flow cytometry, cells or beads pass a laser one at a time.

On to “Ac-KKRTLRKSNRKKR-FAM (Ac-KKRTLRKSNRKKR-{FAM}) [Example 5]”, for which the MFI was 22.4.
For 5(6)-carboxyfluorescein [Example 6], the MFI was found to be 8.83.
